Data as given in patent US5206234A, “Benzolactam analogs as antagonists of CCK” (priority 1991, dated 1993).
Like-named read-outs stand apart in the source and are kept apart here.

Assays:
humans = conditions: cited from earlier work
[1] = system: CCK-A and CCK-B receptors; conditions: cited from earlier work
CCK-B receptors = conditions: cited from earlier work
CCK-A receptors = conditions: cited from earlier work
[2] = Deschodt-Lanckman et al.; cited from earlier work
[3] = system: exploratory behavior of the rat; conditions: McElroy et al.; cited from earlier work
anxiety (mice) = conditions: rodents; Crawley / Jones; cited from earlier work
[4] = system: exploratory behavior of the rat; assay: Exploratory behavior in automated activity cages, novel environment; format: in vivo, rat (Male Sprague Dawley); conditions: CCK-8 0.5-16 μg/kg i.p., 30 minutes; F(6,87)=3.21 (p<0.01)
Experimental: B. The effects of CCK-8 and compound A on the exploratory behavior of the rat were examined in automated activity cages and by direct observation. It is known that exogenous CCK-8 decreases exploratory behavior in rats in a novel environment by accelerating the process of habituation. [See Crawley, Pharm. Biochem & Behav. 20, 23-27 (1984).]
Expt 1. Male Sprague Dawley rats were injected ([…].) with CCK-8 and immediately placed in automated activity cages. Activity was measured for 30 minutes past injection.
Expt 2. Male SD rats were injected (s.c.) with the CCK antagonist compound A (0.0001-10 mg/kg) and immediately placed in the automated activity cages.

## CSCC[C@H](NC(=O)[C@@H](N)Cc1c[nH]c2ccccc12)C(=O)N[C@@H](CC(=O)O)C(=O)N[C@@H](Cc1ccccc1)C(N)=O [CCK-4]
humans; in vivo
  Effect in humans (panic, gastrointestinal effects): induce panic
[1]
  Receptor selectivity as agonist: preferential CCK-B receptor agonist
CCK-B receptors
  Affinity for CCK-B receptors: high affinity
CCK-A receptors
  Affinity for CCK-A receptors: lower affinity

## CSCC[C@H](NC(=O)[C@H](Cc1ccc(OS(=O)(=O)O)cc1)NC(=O)[C@@H](N)CC(=O)O)C(=O)NCC(=O)N[C@@H](Cc1c[nH]c2ccccc12)C(=O)N[C@@H](CCSC)C(=O)N[C@@H](CC(=O)O)C(=O)N[C@@H](Cc1ccccc1)C(N)=O [CCK-8s, H-Asp-Tyr(SO3 H)-Met-Gly-Trp-Met-Asp-Phe-NH2]
[2]
  Half-life: less than 1 hour
CCK-B receptors
  Affinity for CCK-B receptors: high affinity
CCK-A receptors
  Affinity for CCK-A receptors: high affinity

## CNC1=Nc2ccc(Cl)cc2C(c2ccccc2)=[N+]([O-])C1 [chlordiazepoxide]
[3]
  Spontaneous locomotor activity in rats in a novel environment: increases spontaneous locomotor activity

## CN1C(=O)CN=C(c2ccccc2)c2cc(Cl)ccc21 [diazepam]
Anxiety (mice)
  Preference of the animal for the black dimly lit side: decrease the preference of the animal for the black dimly lit side of the apparatus

## CCK-8: exogenous CCK-8, equipotent as an agonist at CCK-A and CCK-B receptors
humans; studies in humans
  Effect in humans (panic, gastrointestinal effects): induced gastrointestinal effects but not panic symptoms
[1]
  Receptor selectivity as agonist: equipotent as an agonist at CCK-A and CCK-B receptors
[4]
  Locomotor activity: dose-dependently decreased locomotor activity
